# Reference: patent US20070043000A1, “Immunosuppresive effects of pteridine derivatives” (priority 2003, published 2007)
# System: peripheral blood mononuclear cells (PBMC)
# Test: Mixed lymphocyte reaction (MLR) test
# Assay type: cell-based, human
# Settings: Table 2; [3H]-thymidine incorporation after 5 days incubation
# Method: All reagents were dissolved in 0.5 ml dimethylsulfoxide (hereinafter referred as DMSO) and further diluted in culture medium before use for the following in vitro experiments. The commercially available culture medium consisted of RPMI-1640+10% foetal calf serum (FCS). Peripheral blood mononuclear cells (hereinafter referred as PBMC) were isolated from heparinized peripheral blood by density gradient centrifugation over Lymphoprep (Nycomed, Maorstua, Norway). Allogeneic PBMC or […]-Barr Virus-transformed human B cells [commercially available under the trade name RPMI1788 (ATCC name CCL156)] which strongly express B7-1 and B7-2 antigens were used as stimulator cells after irradiation with 30 Gy. MLR was performed in triplicate wells. After 5 days incubation at 37° C., 1 μCi [^3H]-thymidine was added to each cup. After a further 16 hours incubation, cells were harvested and counted in a β-counter. Inhibition of proliferation by a compound (drug) described in some of the previous examples was counted using the formula: [formula] wherein cpm is the thymidine count per minute. TNF-Alpha and IL-1 Beta Assays
row,Structure (SMILES),IC50
1,"COc1ccc(-c2nc3c(=O)[nH]c(=O)n(C)c3nc2Cl)cc1 [Example 15, 1-methyl-6-(4′-methoxyphenyl)-7-chloro-lumazine]",3 µM

# Same assay, conditions: Table 7; same conditions as example 26
row,Structure (SMILES),IC50
1,"Cn1c(=O)[nH]c(=O)c2nc(-c3ccc(F)cc3)c(Cl)nc21 [Example 42, 7-chloro-6-(4-fluorophenyl)-1-methyl-lumazine]",4.8 µM
2,"COc1ccc(-c2nc3c(=O)n(CCCC(=O)OC(C)C)c(=O)n(C)c3nc2Br)cc1OC [Example 88, 7-bromo-6-(3,4-dimethoxyphenyl)-3-(isopropyl butyrate)-1-methyl-lumazine]",4.7 µM
3,"Cn1c(=O)c2nc(-c3ccccc3)c(Cl)nc2n(CCO)c1=O [Example 62, 7-chloro-1-(2-hydroxyethyl)-3-methyl-6-phenyl-lumazine]",2.5 µM
4,"Cn1c(=O)n(CCN2CCOCC2)c(=O)c2nc(-c3ccccc3)c(Br)nc21 [Example 81, 7-bromo-1-methyl-3-(2-morpholinoethyl)-6-phenyl-lumazine]",4.7 µM
5,"Cn1c(=O)n(CCCC(=O)O)c(=O)c2nc(-c3ccccc3)c(Cl)nc21 [Example 85, 7-chloro-3-(n-butyric acid)-1-methyl-6-phenyl-lumazine]",5 µM
6,"CC(=O)Nn1c(=O)c2nc(-c3ccccc3)c(Cl)nc2n(C)c1=O [Example 69, 3-acetamido-7-chloro-1-methyl-6-phenyl-lumazine]",4.5 µM
7,"CCCNC(=O)CCCn1c(=O)c2nc(-c3ccccc3)c(Cl)nc2n(C)c1=O [Example 92, 7-chloro-1-methyl-6-phenyl-3-(N-propyl 4-butyramido)-lumazine]",3.4 µM
8,"CCOC(=O)CCCn1c(=O)c2nc(-c3ccc(OC)c(OC)c3)c(Cl)nc2n(C)c1=O [Example 63, 7-chloro-6-(3,4-dimethoxyphenyl)-3-(ethyl butyrate)-1-methyl-lumazine]",5.7 µM
9,"COc1ccc(-c2nc3c(=O)[nH]c(=O)n(C)c3nc2Cl)cc1OC [Example 41, 7-chloro-6-(3,4-dimethoxyphenyl)-1-methyl-lumazine]",5.1 µM
10,"Cn1c(=O)c2nc(-c3ccccc3)c(Cl)nc2n(Cc2ccccc2)c1=O [Example 61, 1-benzyl-7-chloro-3-methyl-6-phenyl-lumazine]",3.7 µM
11,"CCOC(=O)CCCn1c(=O)c2nc(-c3ccccc3)c(Cl)nc2n(-c2ccccc2)c1=O [Example 65, 7-chloro-1,6-diphenyl-3-(ethyl butyrate)-lumazine]",3.8 µM
12,"Cn1c(=O)n(CCCC(N)=O)c(=O)c2nc(-c3ccccc3)c(Cl)nc21 [Example 90, 3-(4-butyramido)-7-chloro-1-methyl6-phenyl-lumazine]",3.9 µM
13,"CCOC(=O)CCCn1c(=O)c2nc(-c3ccccc3)c(Br)nc2n(C)c1=O [Example 70, 7-bromo-3-(ethyl butyrate)-1-methyl-6-phenyl-lumazine]",5 µM

# System: TNF-alpha production by PBMC
# Test: TNF-alpha assay, LPS-stimulated PBMC, sandwich ELISA
# Assay type: cell-based, human
# Settings: Table 2; LPS 1 μg/ml, 72 hours; read-out: TNF IC50
# Method: (§1) All reagents were dissolved in 0.5 ml dimethylsulfoxide (hereinafter referred as DMSO) and further diluted in culture medium before use for the following in vitro experiments. The commercially available culture medium consisted of RPMI-1640+10% foetal calf serum (FCS). Peripheral blood mononuclear cells (herein referred as PBMC), in response to stimulation by lipopolysaccharide (LPS), a gram-negative bacterial endotoxin, produce various […], in particular human TNF-alpha and II-1 beta. The inhibition of the activation of PBMC can be measured by the level of suppression of the production of TNF-alpha or IL-1 beta by PBMC in response to stimulation by LPS. Such inhibition measurement was performed as follows: PBMC were isolated from heparinized peripheral blood (Buffy coat) by density gradient centrifugation. LPS is then added to the PMBC suspension in complete medium (10^6 cells/ml) at a final concentration of 1 μg/ml. The compound to be tested was added at different dilution levels, and the cells were incubated at 37° C. for 72 hours. The supernatants were collected, and TNF-alpha or II-1 beta concentrations were measured with respectively an anti-TNF antibody or an anti-IL-1 beta antibody in a sandwich ELISA. The percent inhibition was calculated as: % inhibition=(pg/ml in sample−pg/ml min.)/(pg/ml max.−pg/ml min.)−1 wherein: min.: pg/ml in culture medium without test compound, and • max.: pg/ml in culture medium+LPS without test compound.
row,Structure (SMILES),IC50
1,"COc1ccc(-c2nc3c(=O)[nH]c(=O)n(C)c3nc2Cl)cc1 [Example 15, 1-methyl-6-(4′-methoxyphenyl)-7-chloro-lumazine]",0.8 µM

# Same assay, conditions: Table 7; same conditions as example 26; read-out: TNFα IC50
row,Structure (SMILES),IC50
1,"Cn1c(=O)[nH]c(=O)c2nc(-c3ccc(F)cc3)c(Cl)nc21 [Example 42, 7-chloro-6-(4-fluorophenyl)-1-methyl-lumazine]",4.7 µM
2,"COc1ccc(-c2nc3c(=O)n(CCCC(=O)OC(C)C)c(=O)n(C)c3nc2Br)cc1OC [Example 88, 7-bromo-6-(3,4-dimethoxyphenyl)-3-(isopropyl butyrate)-1-methyl-lumazine]",0.7 µM
3,"Cn1c(=O)c2nc(-c3ccccc3)c(Cl)nc2n(CCO)c1=O [Example 62, 7-chloro-1-(2-hydroxyethyl)-3-methyl-6-phenyl-lumazine]",0.6 µM
4,"Cn1c(=O)n(CCN2CCOCC2)c(=O)c2nc(-c3ccccc3)c(Br)nc21 [Example 81, 7-bromo-1-methyl-3-(2-morpholinoethyl)-6-phenyl-lumazine]",1.7 µM
5,"Cn1c(=O)n(CCCC(=O)O)c(=O)c2nc(-c3ccccc3)c(Cl)nc21 [Example 85, 7-chloro-3-(n-butyric acid)-1-methyl-6-phenyl-lumazine]",6.1 µM
6,"CC(=O)Nn1c(=O)c2nc(-c3ccccc3)c(Cl)nc2n(C)c1=O [Example 69, 3-acetamido-7-chloro-1-methyl-6-phenyl-lumazine]",5.8 µM
7,"CCCNC(=O)CCCn1c(=O)c2nc(-c3ccccc3)c(Cl)nc2n(C)c1=O [Example 92, 7-chloro-1-methyl-6-phenyl-3-(N-propyl 4-butyramido)-lumazine]",5.4 µM
8,"CCOC(=O)CCCn1c(=O)c2nc(-c3ccc(OC)c(OC)c3)c(Cl)nc2n(C)c1=O [Example 63, 7-chloro-6-(3,4-dimethoxyphenyl)-3-(ethyl butyrate)-1-methyl-lumazine]",0.6 µM
9,"COc1ccc(-c2nc3c(=O)[nH]c(=O)n(C)c3nc2Cl)cc1OC [Example 41, 7-chloro-6-(3,4-dimethoxyphenyl)-1-methyl-lumazine]",1.7 µM
10,"Cn1c(=O)c2nc(-c3ccccc3)c(Cl)nc2n(Cc2ccccc2)c1=O [Example 61, 1-benzyl-7-chloro-3-methyl-6-phenyl-lumazine]",0.7 µM
11,"CCOC(=O)CCCn1c(=O)c2nc(-c3ccccc3)c(Cl)nc2n(-c2ccccc2)c1=O [Example 65, 7-chloro-1,6-diphenyl-3-(ethyl butyrate)-lumazine]",0.8 µM
12,"Cn1c(=O)n(CCCC(N)=O)c(=O)c2nc(-c3ccccc3)c(Cl)nc21 [Example 90, 3-(4-butyramido)-7-chloro-1-methyl6-phenyl-lumazine]",4.9 µM
13,"CCOC(=O)CCCn1c(=O)c2nc(-c3ccccc3)c(Br)nc2n(C)c1=O [Example 70, 7-bromo-3-(ethyl butyrate)-1-methyl-6-phenyl-lumazine]",5.5 µM

# System: IL-1 beta production by PBMC
# Test: IL-1 beta assay, LPS-stimulated PBMC, sandwich ELISA
# Assay type: cell-based, human
# Settings: Table 2; LPS 1 μg/ml, 72 hours; read-out: IL-1 IC50
# Method: as §1
row,Structure (SMILES),IC50
1,"COc1ccc(-c2nc3c(=O)[nH]c(=O)n(C)c3nc2Cl)cc1 [Example 15, 1-methyl-6-(4′-methoxyphenyl)-7-chloro-lumazine]",0.4 µM

# Same assay, conditions: Table 7; same conditions as example 26; read-out: IL1β IC50
row,Structure (SMILES),IC50
1,"Cn1c(=O)[nH]c(=O)c2nc(-c3ccc(F)cc3)c(Cl)nc21 [Example 42, 7-chloro-6-(4-fluorophenyl)-1-methyl-lumazine]",0.7 µM
2,"COc1ccc(-c2nc3c(=O)n(CCCC(=O)OC(C)C)c(=O)n(C)c3nc2Br)cc1OC [Example 88, 7-bromo-6-(3,4-dimethoxyphenyl)-3-(isopropyl butyrate)-1-methyl-lumazine]",7.5 µM
3,"Cn1c(=O)c2nc(-c3ccccc3)c(Cl)nc2n(CCO)c1=O [Example 62, 7-chloro-1-(2-hydroxyethyl)-3-methyl-6-phenyl-lumazine]",0.6 µM
4,"Cn1c(=O)n(CCN2CCOCC2)c(=O)c2nc(-c3ccccc3)c(Br)nc21 [Example 81, 7-bromo-1-methyl-3-(2-morpholinoethyl)-6-phenyl-lumazine]",5.4 µM
5,"Cn1c(=O)n(CCCC(=O)O)c(=O)c2nc(-c3ccccc3)c(Cl)nc21 [Example 85, 7-chloro-3-(n-butyric acid)-1-methyl-6-phenyl-lumazine]",3.9 µM
6,"CC(=O)Nn1c(=O)c2nc(-c3ccccc3)c(Cl)nc2n(C)c1=O [Example 69, 3-acetamido-7-chloro-1-methyl-6-phenyl-lumazine]",3.4 µM
7,"CCCNC(=O)CCCn1c(=O)c2nc(-c3ccccc3)c(Cl)nc2n(C)c1=O [Example 92, 7-chloro-1-methyl-6-phenyl-3-(N-propyl 4-butyramido)-lumazine]",1.1 µM
8,"CCOC(=O)CCCn1c(=O)c2nc(-c3ccc(OC)c(OC)c3)c(Cl)nc2n(C)c1=O [Example 63, 7-chloro-6-(3,4-dimethoxyphenyl)-3-(ethyl butyrate)-1-methyl-lumazine]",0.9 µM
9,"COc1ccc(-c2nc3c(=O)[nH]c(=O)n(C)c3nc2Cl)cc1OC [Example 41, 7-chloro-6-(3,4-dimethoxyphenyl)-1-methyl-lumazine]",0.7 µM
10,"Cn1c(=O)c2nc(-c3ccccc3)c(Cl)nc2n(Cc2ccccc2)c1=O [Example 61, 1-benzyl-7-chloro-3-methyl-6-phenyl-lumazine]",0.5 µM
11,"CCOC(=O)CCCn1c(=O)c2nc(-c3ccccc3)c(Cl)nc2n(-c2ccccc2)c1=O [Example 65, 7-chloro-1,6-diphenyl-3-(ethyl butyrate)-lumazine]",0.5 µM
12,"Cn1c(=O)n(CCCC(N)=O)c(=O)c2nc(-c3ccccc3)c(Cl)nc21 [Example 90, 3-(4-butyramido)-7-chloro-1-methyl6-phenyl-lumazine]",1.6 µM
13,"CCOC(=O)CCCn1c(=O)c2nc(-c3ccccc3)c(Br)nc2n(C)c1=O [Example 70, 7-bromo-3-(ethyl butyrate)-1-methyl-6-phenyl-lumazine]",3.5 µM

# System: murine experimental allergic encephalomyelitis
# Test: Murine multiple sclerosis model (experimental allergic encephalomyelitis)
# Assay type: in vivo
# Settings: animals treated in the murine EAE model, 20 mg/kg/day
row,Structure (SMILES),sign of toxicity
1,"Cn1c(=O)[nH]c(=O)c2nc(-c3ccc(F)cc3)c(Cl)nc21 [Example 42, 7-chloro-6-(4-fluorophenyl)-1-methyl-lumazine]",did not show any sign of toxicity
